Measurements taken from ChEMBL document CHEMBL4699602, “Stapled and Xenopus Glucagon-Like Peptide 1 (GLP-1)-Based Dual GLP-1/Gastrin Receptor Agonists with Improved Metabolic Benefits in Rodent Models of Obesity and Diabetes” (J Med Chem, 2020).
Activity calls are given as the source filed them. The rule behind the calls is not given here. *1 amine or outer side, *2 acyl side, *3 side chain or, on linkers, in order; H or OH if unused. Where a SMILES comes first, the peptide text is derived from it. Bridges are numbered along the chain shown (N, C = ends). [ ]: non-standard residue; d: D form. X5 = O=C(O)CCCCCCCCCCCCCCCCC(=O)NC(CCC(=O)NCCOCCOCC(=O)NCCOCCOCC(=O)NCCCCCCNC(=O)C(CCCCNC(=O)CCN1C(=O)CC([*:2])C1=O)NC(=O)CCN1C(=O)CC([*:1])C1=O)C(=O)O; X3 = O=C(O)CCCCCCCCCCCCCCCCC(=O)NC(CCC(=O)NCCOCCOCC(=O)NCCCCCCNC(=O)C(CCCCNC(=O)CCN1C(=O)CC([*:1])C1=O)NC(=O)CCN1C(=O)CC([*:2])C1=O)C(=O)O; sY = N[C@@H](Cc1ccc(OS(=O)(=O)O)cc1)C(=O)O; AEEA = NCCOCCOCC(=O)O; Aib = CC(C)(N)C(=O)O

Experiments:
[1] = target: T1, Gastrin/cholecystokinin type B receptor (Homo sapiens, UniProt P32239); experiment: Agonist activity at human CCK-2R expressed in HEK293 cells assessed as stimulation of ERK phosphorylation incubated for 5 mins; assay type: cell-based
T1 sequence (P32239 whole entry): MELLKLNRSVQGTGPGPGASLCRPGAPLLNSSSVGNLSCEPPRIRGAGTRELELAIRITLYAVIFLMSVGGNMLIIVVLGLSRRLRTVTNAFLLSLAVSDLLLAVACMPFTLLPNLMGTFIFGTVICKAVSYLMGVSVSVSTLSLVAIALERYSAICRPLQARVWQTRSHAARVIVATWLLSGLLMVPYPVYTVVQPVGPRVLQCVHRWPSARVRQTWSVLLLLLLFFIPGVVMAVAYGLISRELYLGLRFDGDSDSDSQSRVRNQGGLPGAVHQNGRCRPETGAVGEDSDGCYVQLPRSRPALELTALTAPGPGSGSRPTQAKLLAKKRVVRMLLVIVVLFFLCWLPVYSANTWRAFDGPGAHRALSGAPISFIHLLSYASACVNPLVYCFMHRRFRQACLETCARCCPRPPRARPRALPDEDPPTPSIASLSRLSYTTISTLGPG

[2] = target: T2, Cholecystokinin receptor type A (Homo sapiens, UniProt P32238); experiment: Agonist activity at human CCK-1R expressed in HEK293 cells assessed as stimulation of ERK phosphorylation incubated for 5 mins; assay type: cell-based
T2 sequence (P32238 whole entry): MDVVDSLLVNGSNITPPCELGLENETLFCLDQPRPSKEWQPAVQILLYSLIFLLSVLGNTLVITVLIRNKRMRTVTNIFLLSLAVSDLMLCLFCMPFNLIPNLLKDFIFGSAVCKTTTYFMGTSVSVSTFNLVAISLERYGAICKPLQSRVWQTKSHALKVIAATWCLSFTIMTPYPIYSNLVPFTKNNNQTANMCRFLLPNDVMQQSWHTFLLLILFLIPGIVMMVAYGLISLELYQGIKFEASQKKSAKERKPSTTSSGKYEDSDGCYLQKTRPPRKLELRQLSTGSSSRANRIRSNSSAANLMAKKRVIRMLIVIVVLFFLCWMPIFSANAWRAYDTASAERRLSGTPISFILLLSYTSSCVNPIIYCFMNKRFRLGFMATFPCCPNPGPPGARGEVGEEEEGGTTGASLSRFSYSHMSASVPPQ

[3] = target: T3, Glucagon-like peptide 1 receptor (Homo sapiens, UniProt P43220); experiment: Agonist activity at human GLP-1R expressed in HEK293 cells assessed as stimulation of cAMP accumulation incubated for 20 mins; assay type: functional, cell-based
[4] = target: T3, Glucagon-like peptide 1 receptor; experiment: Agonist activity at human GLP-1R expressed in HEK293 cells assessed as stimulation of cAMP accumulation incubated for 20 mins in presence of 4.4% HSA; assay type: functional, cell-based
Mus musculus [5] = experiment: Reduction in body weight in C57BL/6 mouse model of diet induced obesity at 25 nmol/kg, sc dosed every 2 days for 1 week relative to control; assay type: functional; set-up: scale not given: the % may be the effect or the level left; settings: time 1 weeks
Mus musculus [6] = experiment: Hypoglycemic activity in non-fasted db/db mouse assessed as decrease in blood glucose concentration at 25 nmol/kg, sc by OGTT method; assay type: functional, organism-based
[7] = target: T3, Glucagon-like peptide 1 receptor; experiment: Agonist activity at human GLP-1R expressed in HEK293 cells assessed as stimulation of cAMP accumulation incubated for 20 mins in presence of 0% HSA; assay type: functional, cell-based
Mus musculus [8] = experiment: Hypoglycemic activity in non-fasted db/db mouse assessed as duration of time during which decrease in blood glucose concentration is observed at 25 nmol/kg, sc by OGTT method; assay type: functional
Mus musculus [9] = experiment: Reduction in fasted hyperglycemia in C57BL/6 mouse model of diet induced obesity at 25 nmol/kg, sc dosed every 2 days for 1 week relative to control; assay type: functional, organism-based; settings: time 1.0 weeks
[10] = target: T3, Glucagon-like peptide 1 receptor; experiment: Ratio of EC50 for agonist activity at human GLP-1R expressed in HEK293 cells in presence of 4.4% HSA to EC50 for agonist activity at human GLP-1R expressed in HEK293 cells in presence of 0% HSA; assay type: cell-based
serum albumin = serum albumin (Homo sapiens, UniProt P02768); experiment: Binding affinity to human serum albumin in PBS pH 7.4 at 100 ug/mL incubated for 2 hrs by LC-MS/MS analysis relative to control; assay type: ADME; settings: at 100 µg/mL, read-out: PB (converted)
Mus musculus [11] = experiment: Reduction in food intake in C57BL/6 mouse model of diet induced obesity at 25 nmol/kg, sc dosed every 2 days for 1 week relative to control; assay type: functional, organism-based; settings: time 1.0 weeks
Mus musculus [12] = experiment: Hypoglycemic activity in ICR mouse assessed as decrease in blood glucose concentration at 25 nmol/kg, ip dosed 15 mins before test and measured up to 120 mins by OGTT method; assay type: functional, organism-based

Chain of serum albumin (P02768 whole entry): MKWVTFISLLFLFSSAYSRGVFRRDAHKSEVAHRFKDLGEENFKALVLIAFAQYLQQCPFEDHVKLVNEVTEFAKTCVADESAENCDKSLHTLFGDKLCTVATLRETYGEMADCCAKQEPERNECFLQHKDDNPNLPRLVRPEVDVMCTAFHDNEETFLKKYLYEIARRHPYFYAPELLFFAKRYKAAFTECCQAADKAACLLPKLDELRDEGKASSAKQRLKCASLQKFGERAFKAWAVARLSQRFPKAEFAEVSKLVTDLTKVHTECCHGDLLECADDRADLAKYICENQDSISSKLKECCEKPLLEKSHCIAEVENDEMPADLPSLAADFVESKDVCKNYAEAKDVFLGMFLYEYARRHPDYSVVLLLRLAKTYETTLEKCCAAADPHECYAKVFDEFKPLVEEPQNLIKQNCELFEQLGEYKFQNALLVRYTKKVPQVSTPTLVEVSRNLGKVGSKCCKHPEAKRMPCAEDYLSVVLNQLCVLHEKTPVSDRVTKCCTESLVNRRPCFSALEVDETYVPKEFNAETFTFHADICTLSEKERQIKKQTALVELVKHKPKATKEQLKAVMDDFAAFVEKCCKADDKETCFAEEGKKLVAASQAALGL
T3 sequence (P43220 whole entry): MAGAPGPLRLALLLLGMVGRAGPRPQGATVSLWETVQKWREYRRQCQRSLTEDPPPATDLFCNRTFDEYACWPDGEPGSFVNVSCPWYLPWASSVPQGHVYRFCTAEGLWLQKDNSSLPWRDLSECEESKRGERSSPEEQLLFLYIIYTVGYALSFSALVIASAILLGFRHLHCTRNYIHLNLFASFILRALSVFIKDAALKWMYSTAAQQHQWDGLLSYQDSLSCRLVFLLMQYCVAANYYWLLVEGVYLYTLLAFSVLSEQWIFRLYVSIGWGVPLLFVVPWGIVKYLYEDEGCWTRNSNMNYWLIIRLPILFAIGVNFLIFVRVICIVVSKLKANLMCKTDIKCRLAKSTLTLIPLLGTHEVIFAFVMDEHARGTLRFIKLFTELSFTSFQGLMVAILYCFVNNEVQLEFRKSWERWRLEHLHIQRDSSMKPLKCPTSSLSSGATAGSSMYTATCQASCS

Molecule	EC50 [1] [nM]	EC50 [2] [nM]	EC50 [3] [nM]	EC50 [4] [nM]	Activity (Mus musculus [5]) [%]	Activity (Mus musculus [6])	EC50 [7] [nM]	Time (Mus musculus [8]) [h]	Activity (Mus musculus [9])	Ratio EC50 [10]	fraction unbound at 2 h, 100 ug/mL (serum albumin)	Activity (Mus musculus [11])	Activity (Mus musculus [12])
CC[C@H](C)[C@@H]1NC(=O)[C@H](CC(C)C)NC(=O)[C@H](Cc2c[nH]c3ccccc23)NC(=O)[C@H](CCC(=O)O)NC(=O)[C@H]([C@@H](C)CC)NC(=O)[C@H](Cc2ccccc2)NC(=O)[C@@H](NC(=O)[C@H](CCCCN)NC(=O)[C@H](C)NC(=O)[C@H](C)NC(=O)[C@H](CCC(=O)O)NC(=O)[C@H](CCC(=O)O)NC(=O)[C@H](CCC(=O)O)NC(=O)[C@H](CC(C)C)NC(=O)[C@H](Cc2ccc(O)cc2)NC(=O)[C@H](CCC(=O)O)NC(=O)[C@@H](NC(=O)[C@@H](NC(=O)[C@H](CC(=O)O)NC(=O)[C@H](CC(N)=O)NC(=O)[C@@H](NC(=O)[C@H](Cc2ccc(O)cc2)NC(=O)[C@@H](NC(=O)CNC(=O)[C@H](CCC(=O)O)NC(=O)C(C)(C)NC(=O)[C@@H](N)Cc2c[nH]cn2)[C@@H](C)O)[C@@H](C)O)C(C)C)[C@@H](C)O)CSC2CC(=O)N(CCC(=O)NCCCCC(C(=O)NCCCCCCNC(=O)COCCOCCNC(=O)CCC(NC(=O)CCCCCCCCCCCCCCCCC(=O)O)C(=O)O)NC(=O)CCN3C(=O)CC(SC[C@@H](C(=O)NCC(=O)N[C@@H](CCCCN)C(=O)NCCOCCOCC(=O)NCCOCCOCC(=O)N[C@@H](Cc4ccc(O)cc4)C(=O)NCC(=O)N[C@@H](Cc4c[nH]c5ccccc45)C(=O)N[C@@H](CC(C)C)C(=O)N[C@@H](CC(=O)O)C(=O)N[C@@H](Cc4ccccc4)C(N)=O)NC1=O)C3=O)C2=O (some centres undefined) (H-H[Aib]EGTYTNDVTEYLEEEAAKCFIEWLICGK[AEEA][AEEA]YGWLDF-NH2; linker 21-28 via X3)	17.5	> 1000	0.061										
CC[C@H](C)[C@H](NC(=O)[C@H](CC(C)C)NC(=O)[C@H](Cc1c[nH]c2ccccc12)NC(=O)[C@H](CCC(=O)O)NC(=O)[C@@H](NC(=O)[C@H](Cc1ccccc1)NC(=O)[C@@H]1CSC2CC(=O)N(CCC(=O)NC(C(=O)NCCCCCCNC(=O)COCCOCCNC(=O)COCCOCCNC(=O)CCC(NC(=O)CCCCCCCCCCCCCCCCC(=O)O)C(=O)O)CCCCNC(=O)CCN3C(=O)CC(SC[C@H](NC(=O)[C@H](Cc4ccc(O)cc4)NC(=O)[C@H](CCC(=O)O)NC(=O)[C@@H](NC(=O)[C@@H](NC(=O)[C@H](CC(=O)O)NC(=O)[C@H](CC(N)=O)NC(=O)[C@@H](NC(=O)[C@H](Cc4ccc(O)cc4)NC(=O)[C@@H](NC(=O)CNC(=O)[C@H](CCC(=O)O)NC(=O)C(C)(C)NC(=O)[C@@H](N)Cc4c[nH]cn4)[C@@H](C)O)[C@@H](C)O)C(C)C)[C@@H](C)O)C(=O)N[C@@H](CCC(=O)O)C(=O)N[C@@H](CCC(=O)O)C(=O)N[C@@H](CCC(=O)O)C(=O)N[C@@H](C)C(=O)N[C@@H](C)C(=O)N[C@@H](CCCCN)C(=O)N1)C3=O)C2=O)[C@@H](C)CC)C(=O)N[C@@H](CCCCN)C(=O)NCC(=O)N[C@@H](CCCCN)C(=O)N1CCC[C@H]1C(=O)N[C@@H](CO)C(=O)N[C@@H](CO)C(=O)NCC(=O)N[C@@H](C)C(=O)N1CCC[C@H]1C(=O)N1CCC[C@H]1C(=O)N1CCC[C@H]1C(=O)N[C@@H](CO)C(N)=O (some centres undefined) (HELM PEPTIDE1{H.[Aib].E.G.T.Y.T.N.D.V.T.E.Y.C.E.E.E.A.A.K.C.F.I.E.W.L.I.K.G.K.P.S.S.G.A.P.P.P.S.[am]}|CHEM1{[O=C(O)CCCCCCCCCCCCCCCCC(=O)NC(CCC(=O)NCCOCCOCC(=O)NCCOCCOCC(=O)NCCCCCCNC(=O)C(CCCCNC(=O)CCN1C(=O)CC([*:1])C1=O)NC(=O)CCN1C(=O)CC([*:2])C1=O)C(=O)O]}$PEPTIDE1,CHEM1,14:R3-1:R1|PEPTIDE1,CHEM1,21:R3-1:R2$$$V2.0)				2.7	13.8	Active	0.025	24	Active	108	0.047		
CC[C@H](C)[C@H](NC(=O)[C@H](CC(C)C)NC(=O)[C@H](Cc1c[nH]c2ccccc12)NC(=O)[C@H](CCC(=O)O)NC(=O)[C@@H](NC(=O)[C@H](Cc1ccccc1)NC(=O)[C@@H]1CSC2CC(=O)N(CCC(=O)NC(C(=O)NCCCCCCNC(=O)COCCOCCNC(=O)CCC(NC(=O)CCCCCCCCCCCCCCCCC(=O)O)C(=O)O)CCCCNC(=O)CCN3C(=O)CC(SC[C@H](NC(=O)[C@H](Cc4ccc(O)cc4)NC(=O)[C@H](CCC(=O)O)NC(=O)[C@@H](NC(=O)[C@@H](NC(=O)[C@H](CC(=O)O)NC(=O)[C@H](CC(N)=O)NC(=O)[C@@H](NC(=O)[C@H](Cc4ccc(O)cc4)NC(=O)[C@@H](NC(=O)CNC(=O)[C@H](CCC(=O)O)NC(=O)C(C)(C)NC(=O)[C@@H](N)Cc4c[nH]cn4)[C@@H](C)O)[C@@H](C)O)C(C)C)[C@@H](C)O)C(=O)N[C@@H](CCC(=O)O)C(=O)N[C@@H](CCC(=O)O)C(=O)N[C@@H](CCC(=O)O)C(=O)N[C@@H](C)C(=O)N[C@@H](C)C(=O)N[C@@H](CCCCN)C(=O)N1)C3=O)C2=O)[C@@H](C)CC)C(=O)N[C@@H](CCCCN)C(=O)NCC(=O)N[C@@H](CCCCN)C(N)=O (some centres undefined) (HELM PEPTIDE1{H.[Aib].E.G.T.Y.T.N.D.V.T.E.Y.C.E.E.E.A.A.K.C.F.I.E.W.L.I.K.G.K.[am]}|CHEM1{[O=C(O)CCCCCCCCCCCCCCCCC(=O)NC(CCC(=O)NCCOCCOCC(=O)NCCCCCCNC(=O)C(CCCCNC(=O)CCN1C(=O)CC([*:1])C1=O)NC(=O)CCN1C(=O)CC([*:2])C1=O)C(=O)O]}$PEPTIDE1,CHEM1,14:R3-1:R1|PEPTIDE1,CHEM1,21:R3-1:R2$$$V2.0)				2.8	9.8	Active	0.059	24	Active	47.5	0.074	Active	
H-HGEGTYTNDVTEYLEEEAAKEFIEWLIKGKPSSGAPPPS-NH2	> 1000	> 1000	0.034										Active
H-H[Aib]EGTYTNDVTEYCEEEAAKCFIEWLIKGKPSSGAPPPS[AEEA][AEEA]YGWLDF-NH2 (cysteines drawn unpaired)	8.3	> 1000	0.04										
H-H[Aib]EGTYTNDVTEYCEEEAAKCFIEWLIKGKPSSGAPPPS[AEEA][AEEA][sY]GWMDF-NH2 (cysteines drawn unpaired)	7.6	> 1000	0.038										
H-H[Aib]EGTYTNDVTEYLEEEAAKCFIEWLICGKPSSGAPPPS[AEEA][AEEA]YGWLDF-NH2 (cysteines drawn unpaired)	9.4	> 1000	0.048										
H-H[Aib]EGTYTNDVTEYLEEEAAKCFIEWLICGKPSSGAPPPS[AEEA][AEEA][sY]GWMDF-NH2 (cysteines drawn unpaired)	8.2	> 1000	0.059										
H-H[Aib]EGTYTNDVTEYLEEEAAKCFIEWLICGKPSSGAPPSKKKKKK-NH2 (linker 21-28 via X5)				2.7	10.6	Active	0.034	24	Active	79.4	0.033		
